According to paper PMC9746828, “Small-molecule PROTAC mediates targeted protein degradation to treat STAT3-dependent epithelial cancer” (JCI Insight, 2022):

Target: STAT3 (Homo sapiens, UniProt P40763)
Experiment: microscale thermophoresis (MST), recombinant human STAT3
Type: binding

Chain of STAT3 (P40763 2-770): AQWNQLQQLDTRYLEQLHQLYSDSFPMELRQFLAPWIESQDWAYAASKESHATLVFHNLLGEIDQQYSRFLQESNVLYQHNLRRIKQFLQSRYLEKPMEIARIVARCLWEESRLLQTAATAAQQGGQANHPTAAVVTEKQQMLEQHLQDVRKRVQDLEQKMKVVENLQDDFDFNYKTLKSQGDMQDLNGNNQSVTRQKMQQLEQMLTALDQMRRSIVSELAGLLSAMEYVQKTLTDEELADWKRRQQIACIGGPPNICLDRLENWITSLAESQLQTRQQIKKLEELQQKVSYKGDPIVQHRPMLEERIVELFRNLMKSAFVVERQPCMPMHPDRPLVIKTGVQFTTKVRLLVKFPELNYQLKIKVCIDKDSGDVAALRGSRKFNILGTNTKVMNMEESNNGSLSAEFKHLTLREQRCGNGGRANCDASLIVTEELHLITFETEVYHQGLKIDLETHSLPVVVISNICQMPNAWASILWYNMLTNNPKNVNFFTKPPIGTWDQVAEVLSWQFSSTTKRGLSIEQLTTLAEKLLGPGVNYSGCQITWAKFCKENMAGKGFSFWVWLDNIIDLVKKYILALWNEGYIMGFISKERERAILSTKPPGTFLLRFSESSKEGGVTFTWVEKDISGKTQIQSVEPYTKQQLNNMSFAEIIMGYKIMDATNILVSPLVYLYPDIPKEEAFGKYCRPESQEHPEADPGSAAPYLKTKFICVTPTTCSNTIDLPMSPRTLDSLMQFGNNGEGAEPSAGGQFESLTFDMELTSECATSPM

Structure (SMILES): CC(=O)O[C@@H]1C[C@H](O)[C@@]23CO[C@@H](O)[C@]1(C)[C@@H]2C[C@@H](O)[C@]1(C)[C@@H]3C(=O)[C@H](OC(C)=O)[C@@]2(C)[C@H](c3ccoc3)C[C@H]3O[C@]321 [TSN, toosendanin]
- Kd: 296 nM
